Eight compounds from ChEMBL document CHEMBL1201862, “PubChem BioAssay data set” (2004) can be followed below.

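Values below derive from 48-hour exposures of cells grown in 96-well plates, with endpoints linearly interpolated between the two concentrations bracketing the appropriate inhibition level. GI50 marks 50% less growth.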 The source made the active and inactive calls. Cut-off read from the data, not from the text of the source: active = GI50 up to about 1.1 µM and inactive = higher. Where only a bound is given, the exact number is not on record here.

Some test systems named below: CAKI-1; SK-MEL-28; SNB-19; NCI-H522; HCC 2998; SN12C; OVCAR-4; U-251; A549; RPMI-8226; UACC-257; LOX IMVI; M14; ACHN; MDA-MB-435; DU-145; MDA-MB-231; A498; TK-10; HL-60.
Holding throughout (test): NCI tumour cell line growth inhibition, 48 h

Regarding `Cc1ccc(Nc2nnc(-c3ccc4c(c3)OCO4)o2)c(C)c1`, the GI50 with CAKI-1 was > 100 µM (inactive); with SK-MEL-28, > 100 µM (inactive); in the test with SNB-19, 40.2 µM (inactive); in the test on NCI-H522 it was 30.5 µM (inactive); in the test on HCC 2998 it was > 100 µM (inactive); with SN12C, > 100 µM (inactive). Further, the GI50 is > 100 µM (inactive) in the test on OVCAR-4; 39.2 µM (inactive) in the test with U-251; > 100 µM (inactive) in the test with A549; 54 µM (inactive) with RPMI-8226; > 100 µM (inactive) in the test on UACC-257; > 100 µM (inactive) in the test on LOX IMVI. The GI50 in the test on M14 is > 100 µM (inactive); with ACHN it was > 100 µM (inactive); with MDA-MB-435, > 100 µM (inactive); in the test with DU-145, > 100 µM (inactive); in the test with MDA-MB-231, 62.2 µM (inactive); with A498 it was 39.6 µM (inactive). Besides, the GI50 in the test on TK-10 is > 100 µM (inactive).

As to `Cc1cccc(N/C(Sc2ccccc2)=C(/C(Cl)=C(Cl)Cl)[N+](=O)[O-])c1`, the GI50 was 19.9 µM (inactive) in the test with CAKI-1; 17.4 µM (inactive) in the test with SK-MEL-28; 28.7 µM (inactive) in the test with SNB-19; 39.4 µM (inactive) with HCC 2998; 15.3 µM (inactive) in the test with SN12C; 17.5 µM (inactive) in the test with OVCAR-4. In addition, the GI50 is 15.4 µM (inactive) in the test on U-251; 20 µM (inactive) with A549; 30.4 µM (inactive) in the test on RPMI-8226; 20.8 µM (inactive) with UACC-257; 18.8 µM (inactive) with M14; 26.4 µM (inactive) in the test on ACHN. The GI50 in the test on MDA-MB-435 was 17.7 µM (inactive); in the test on DU-145 it was 20.5 µM (inactive); in the test with MDA-MB-231, 20.4 µM (inactive); in the test on A498, 16.8 µM (inactive).

Turning to `C#CCOC(=O)C(=[N+]=[N-])C(=O)CC(C)C`, the GI50 with CAKI-1, in the test with SK-MEL-28, in the test on HL-60, in the test on SNB-19, in the test with HCC 2998 and in the test with SN12C was > 10 µM (inactive) in each case. The GI50 in the test with OVCAR-4, in the test on U-251, in the test with A549, in the test on RPMI-8226, with UACC-257 and in the test with LOX IMVI was > 10 µM (inactive) each time. The GI50 in the test with M14, in the test on ACHN, in the test with MDA-MB-435, with DU-145, in the test on MDA-MB-231 and with A498 was > 10 µM (inactive) in each case. Moreover, the GI50 in the test with TK-10 is > 10 µM (inactive).

For `CC1(C)OC[C@@H](O)[C@H](Br)CO1`, the GI50 in the test with CAKI-1, in the test with SK-MEL-28, in the test on HL-60, with SNB-19, with HCC 2998 and in the test on SN12C was > 100 µM (inactive) throughout. For the same compound, the GI50 is > 100 µM (inactive) in the test with OVCAR-4; > 100 µM (inactive) in the test with U-251; 67.3 µM (inactive) with RPMI-8226; > 100 µM (inactive) with UACC-257; > 100 µM (inactive) in the test with LOX IMVI; > 100 µM (inactive) with M14. In addition, the GI50 with ACHN, with MDA-MB-435, in the test with DU-145, in the test on MDA-MB-231, with A498 and with TK-10 was > 100 µM (inactive) throughout.

For the compound `Nc1nc(Cl)c(N)c(NCC2(CO)CCC(OCc3ccccc3)C2)n1` (stereo unspecified), the GI50 in the test with CAKI-1, with SK-MEL-28, in the test with SNB-19, with NCI-H522, with HCC 2998 and in the test with SN12C was > 100 µM (inactive) each time. For the same compound, the GI50 was 43.4 µM (inactive) in the test with OVCAR-4; > 100 µM (inactive) with U-251; > 100 µM (inactive) in the test on A549; 0.522 µM (active) with UACC-257; 18.5 µM (inactive) with LOX IMVI; > 100 µM (inactive) with ACHN. For the same compound, the GI50 is 95.9 µM (inactive) in the test on MDA-MB-435; > 100 µM (inactive) in the test on DU-145; > 100 µM (inactive) in the test with MDA-MB-231; 0.982 µM (active) with A498; > 100 µM (inactive) with TK-10.

On to `CN(C(=O)C1=CCCCCC1)c1ccccc1I`, for which the GI50 was 64.4 µM (inactive) with CAKI-1; 37.5 µM (inactive) in the test on SK-MEL-28; 13.7 µM (inactive) in the test on HL-60; 62.5 µM (inactive) in the test with SNB-19; 45.9 µM (inactive) with HCC 2998; 49.1 µM (inactive) in the test with SN12C. The GI50 with OVCAR-4 was 18.2 µM (inactive); in the test with U-251, 44.9 µM (inactive); with A549, 62.1 µM (inactive); in the test on RPMI-8226, 35.5 µM (inactive); in the test with UACC-257 it was 44.6 µM (inactive); in the test with LOX IMVI, 28.9 µM (inactive). The GI50 is 31.6 µM (inactive) in the test on M14; 59.6 µM (inactive) with ACHN; 40.2 µM (inactive) in the test with MDA-MB-435; 50.7 µM (inactive) with DU-145; 67.8 µM (inactive) in the test on MDA-MB-231; 0.201 µM (active) in the test on A498.

In the case of `CC1(C)CC(=O)C2(CC(CSc3ccccc3)C(CS(=O)(=O)c3ccccc3)C2)C(=O)C1` (stereo unspecified), the GI50 in the test on CAKI-1, in the test with SK-MEL-28, in the test on SNB-19, in the test with NCI-H522, in the test on HCC 2998 and in the test on SN12C was > 100 µM (inactive) each time. Besides, the GI50 with OVCAR-4 was > 100 µM (inactive); in the test on U-251, > 100 µM (inactive); with A549 it was > 100 µM (inactive); with RPMI-8226, 66.4 µM (inactive); in the test with UACC-257, > 100 µM (inactive); in the test on LOX IMVI, > 100 µM (inactive). Also, the GI50 in the test with M14, in the test on ACHN, with MDA-MB-435, with DU-145, in the test on MDA-MB-231 and with A498 was > 100 µM (inactive) in each case. Also, the GI50 in the test with TK-10 was > 100 µM (inactive).

As for `COc1ccccc1-c1nc(O)c2ccccc2n1`, the GI50 with CAKI-1 was > 100 µM (inactive); with SNB-19, > 100 µM (inactive); with HCC 2998, > 100 µM (inactive); in the test on SN12C it was 56 µM (inactive); in the test with OVCAR-4 it was > 100 µM (inactive); in the test on U-251 it was > 100 µM (inactive). Also, the GI50 in the test with A549, in the test with RPMI-8226, in the test on UACC-257, in the test with M14, in the test with ACHN and in the test on MDA-MB-435 was > 100 µM (inactive) throughout. Further, the GI50 with DU-145, in the test on MDA-MB-231 and with A498 was > 100 µM (inactive) in each case.
